target: T1, P2X7 receptor (Homo sapiens, UniProt Q99572); test: P2X7 calcium mobilization assay, high throughput, antagonist activity (Example 4A); type: cell-based; settings: 50% decrease in the fluorescence response of cells exposed to 80 μM of 2′(3′)-O-(4-benzoyl-benzoyl)adenosine 5′-triphosphate; Example 4A; read-out: IC50
T1 construct: host or cells: SH-SY5Y
T1 sequence (Q99572 1-595): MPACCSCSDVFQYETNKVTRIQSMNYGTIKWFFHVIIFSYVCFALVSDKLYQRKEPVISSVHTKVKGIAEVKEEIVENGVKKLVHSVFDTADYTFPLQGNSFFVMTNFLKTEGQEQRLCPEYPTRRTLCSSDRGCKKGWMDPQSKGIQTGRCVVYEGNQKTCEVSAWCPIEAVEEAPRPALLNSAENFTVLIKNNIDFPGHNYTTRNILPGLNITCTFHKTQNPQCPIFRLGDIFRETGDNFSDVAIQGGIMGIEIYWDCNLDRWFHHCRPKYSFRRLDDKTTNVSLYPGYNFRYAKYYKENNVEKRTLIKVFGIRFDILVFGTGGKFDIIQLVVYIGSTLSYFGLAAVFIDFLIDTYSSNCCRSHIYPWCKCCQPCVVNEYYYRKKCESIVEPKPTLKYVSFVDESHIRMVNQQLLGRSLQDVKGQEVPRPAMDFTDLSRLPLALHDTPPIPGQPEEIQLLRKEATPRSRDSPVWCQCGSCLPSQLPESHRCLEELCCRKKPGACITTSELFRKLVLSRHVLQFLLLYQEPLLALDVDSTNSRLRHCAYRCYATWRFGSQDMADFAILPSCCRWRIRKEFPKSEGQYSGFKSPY
In short: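 Dye-loaded cells (100,000/well, seeded previous day) are pre-exposed to compound for an hour at room temperature. Fluorescence maxima are baseline-corrected against no-agonist wells and compared with the averaged agonist-well maximum.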

IC50 | Structure (SMILES)
< 2000 nM | COCCCN(C(=O)c1cn2c(C(=O)NCC34CC5CC(CC(C5)C3)C4)cccc2n1)C1CCNCC1 [Compound 619, 5-N-(adamantan-1-ylmethyl)-2-N-(3-methoxypropyl)-2-N-piperidin-4-ylimidazo[1,2-a]pyridine-2,5-dicarboxamide]
< 2000 nM | CN(C)CCN(C(=O)c1cn2c(C(=O)NCC34CC5CC(CC(C5)C3)C4)cccc2n1)C1CCNCC1(C)C (stereo not drawn) [Compound 620, 5-N-(adamantan-1-ylmethyl)-2-N-[2-(dimethylamino)ethyl]-2-N-(3,3-dimethylpiperidin-4-yl)imidazo[1,2-a]pyridine-2,5-dicarboxamide]
< 2000 nM | CN(C)CCCN(C(=O)c1cn2c(C(=O)NCC34CC5CC(CC(C5)C3)C4)cccc2n1)C1CCNCC1(C)C (stereo not drawn) [Compound 621, 5-N-(adamantan-1-ylmethyl)-2-N-[3-(dimethylamino)propyl]-2-N-(3,3-dimethylpiperidin-4-yl)imidazo[1,2-a]pyridine-2,5-dicarboxamide]
< 2000 nM | NCC1CCCN1C(=O)c1cn2c(C(=O)NCC34CC5CC(CC(C5)C3)C4)cccc2n1 (stereo not drawn) [Compound 622, N-(adamantan-1-ylmethyl)-2-{[2-(aminomethyl)pyrrolidin-1-yl]carbonyl} imidazo[1,2-a]pyridine-5-carboxamide]
< 2000 nM | COCCN(C(=O)c1cn2c(C(=O)NCC34CC5CC(CC(C5)C3)C4)cccc2n1)C1CCNCC1(C)C (stereo not drawn) [Compound 623, 5-N-(adamantan-1-ylmethyl)-2-N-(3,3-dimethylpiperidin-4-yl)-2-N-(2-methoxyethyl)imidazo [1,2-a]pyridine-2,5-dicarboxamide]
< 2000 nM | NC1CCN(C(=O)c2cn3c(C(=O)NCC45CC6CC(CC(C6)C4)C5)cccc3n2)C1 (stereo not drawn) [Compound 625, N-(adamantan-1-ylmethyl)-2-[(3-aminopyrrolidin-1-yl)carbonyl] imidazo[1,2-a]pyridine-5-carboxamide]
< 2000 nM | NC1CCN(C(=O)c2cn3c(C(=O)NCC45CC6CC(CC(C6)C4)C5)cccc3n2)CC1 [Compound 626, N-(adamantan-1-ylmethyl)-2-[(4-aminopiperidin-1-yl)carbonyl]imidazo[1,2-a]pyridine-5-carboxamide]
< 2000 nM | NC1CCCN(C(=O)c2cn3c(C(=O)NCC45CC6CC(CC(C6)C4)C5)cccc3n2)C1 (stereo not drawn) [Compound 627, N-(adamantan-1-ylmethyl)-2-[(3-aminopiperidin-1-yl)carbonyl]imidazo[1,2-a]pyridine-5-carboxamide]
< 2000 nM | NC[C@@H]1CCCN1C(=O)c1cn2c(C(=O)NCC34CC5CC(CC(C5)C3)C4)cccc2n1 [Compound 628, N-(adamantan-1-ylmethyl)-2-{[(2S)-2-(aminomethyl)pyrrolidin-1-yl]carbonyl}imidazo[1,2-a]pyridine-5-carboxamide]
< 2000 nM | N[C@H]1CCN(C(=O)c2cn3c(C(=O)NCC45CC6CC(CC(C6)C4)C5)cccc3n2)C1 [Compound 629, N-(adamantan-1-ylmethyl)-2-{[(3S)-3-aminopyrrolidin-1-yl]carbonyl}imidazo[1,2-a]pyridine-5-carboxamide]
< 2000 nM | NCC1CCN(C(=O)c2cn3c(C(=O)NCC45CC6CC(CC(C6)C4)C5)cccc3n2)CC1 [Compound 630, N-(adamantan-1-ylmethyl)-2-{[4-(aminomethyl)piperidin-1-yl]carbonyl}imidazo[1,2-a]pyridine-5-carboxamide]
< 2000 nM | NCC1CCCN(C(=O)c2cn3c(C(=O)NCC45CC6CC(CC(C6)C4)C5)cccc3n2)C1 (stereo not drawn) [Compound 631, N-(adamantan-1-ylmethyl)-2-{[3-(aminomethyl)piperidin-1-yl]carbonyl} imidazo[1,2-a]pyridine-5-carboxamide]
< 2000 nM | NCC1CCCCN1C(=O)c1cn2c(C(=O)NCC34CC5CC(CC(C5)C3)C4)cccc2n1 (stereo not drawn) [Compound 632, N-(adamantan-1-ylmethyl)-2-{[2-(aminomethyl)piperidin-1-yl]carbonyl}imidazo[1,2-a]pyridine-5-carboxamide]
< 2000 nM | NC[C@H]1CCCN1C(=O)c1cn2c(C(=O)NCC34CC5CC(CC(C5)C3)C4)cccc2n1 [Compound 633, N-(adamantan-1-ylmethyl)-2-{[(2R)-2-(aminomethyl)pyrrolidin-1-yl]carbonyl}imidazo[1,2-a]pyridine-5-carboxamide]
< 2000 nM | NCC1CN(C(=O)c2cn3c(C(=O)NCC45CC6CC(CC(C6)C4)C5)cccc3n2)C1 [Compound 634, N-(adamantan-1-ylmethyl)-2-{[3-(aminomethyl)azetidin-1-yl]carbonyl}imidazo[1,2-a]pyridine-5-carboxamide]
< 2000 nM | NC1CN(C(=O)c2cn3c(C(=O)NCC45CC6CC(CC(C6)C4)C5)cccc3n2)C1 [Compound 635, N-(adamantan-1-ylmethyl)-2-[(3-aminoazetidin-1-yl)carbonyl]imidazo[1,2-a]pyridine-5-carboxamide]
< 2000 nM | O=C(NC1CCNCC1)c1cn2c(C(=O)NCC34CC5CC(CC(C5)C3)C4)cccc2n1 [Compound 637, 5-N-(adamantan-1-ylmethyl)-2-N-piperidin-4-ylimidazo[1,2-a]pyridine-2,5-dicarboxamide]
< 2000 nM | O=C(NCC1CCCN1)c1cn2c(C(=O)NCC34CC5CC(CC(C5)C3)C4)cccc2n1 (stereo not drawn) [Compound 639, 5-N-(adamantan-1-ylmethyl)-2-N-(pyrrolidin-2-ylmethyl)imidazo[1,2-a]pyridine-2,5-dicarboxamide]
< 2000 nM | NC1CC2CCC(C1)N2C(=O)c1cn2c(C(=O)NCC34CC5CC(CC(C5)C3)C4)cccc2n1 (stereo not drawn) [Compound 640, N-(adamantan-1-ylmethyl)-2-[(3-amino-8-azabicyclo[3.2.1]oct-8-yl)carbonyl]imidazo[1,2-a]pyridine-5-carboxamide]
< 2000 nM | CCN1CCCC1CNC(=O)c1cn2c(C(=O)NCC34CC5CC(CC(C5)C3)C4)cccc2n1 (stereo not drawn) [Compound 643, 5-N-(adamantan-1-ylmethyl)-2-N-[(1-ethylpyrrolidin-2-yl)methyl]imidazo[1,2-a]pyridine-2,5-dicarboxamide]
< 2000 nM | CN(C)CC(C)(C)CNC(=O)c1cn2c(C(=O)NCC34CC5CC(CC(C5)C3)C4)cccc2n1 [Compound 644, 5-N-(adamantan-1-ylmethyl)-2-N-[3-(dimethylamino)-2,2-dimethylpropyl] imidazo[1,2-a] pyridine-2,5-dicarboxamide]
< 2000 nM | O=C(NCCCN1CCCC1)c1cn2c(C(=O)NCC34CC5CC(CC(C5)C3)C4)cccc2n1 [Compound 645, 5-N-(adamantan-1-ylmethyl)-2-N-(3-pyrrolidin-1-ylpropyl)imidazo[1,2-a]pyridine-2,5-dicarboxamide]
< 2000 nM | O=C(NCCN1CCCC1)c1cn2c(C(=O)NCC34CC5CC(CC(C5)C3)C4)cccc2n1 [Compound 646, 5-N-(adamantan-1-ylmethyl)-2-N-(2-pyrrolidin-1-ylethyl)imidazo[1,2-a]pyridine-2,5-dicarboxamide]
< 2000 nM | CN(C)CCCNC(=O)c1cn2c(C(=O)NCC34CC5CC(CC(C5)C3)C4)cccc2n1 [Compound 647, 5-N-(adamantan-1-ylmethyl)-2-N-[3-(dimethylamino)propyl]imidazo [1,2-a]pyridine-2,5-dicarboxamide]
< 2000 nM | O=C(NCCN1CCOCC1)c1cn2c(C(=O)NCC34CC5CC(CC(C5)C3)C4)cccc2n1 [Compound 648, 5-N-(adamantan-1-ylmethyl)-2-N-(2-morpholin-4-ylethyl)imidazo[1,2-a]pyridine-2,5-dicarboxamide]
< 2000 nM | CN1CCCC1CCNC(=O)c1cn2c(C(=O)NCC34CC5CC(CC(C5)C3)C4)cccc2n1 (stereo not drawn) [Compound 649, 5-N-(adamantan-1-ylmethyl)-2-N-[2-(1-methylpyrrolidin-2-yl)ethyl]imidazo[1,2-a]pyridine-2,5-dicarboxamide]
< 2000 nM | O=C(NCCN1CCCCC1)c1cn2c(C(=O)NCC34CC5CC(CC(C5)C3)C4)cccc2n1 [Compound 650, 5-N-(adamantan-1-ylmethyl)-2-N-(2-piperidin-1-ylethyl)imidazo[1,2-a]pyridine-2,5-dicarboxamide]
< 2000 nM | CCN(CC)CCNC(=O)c1cn2c(C(=O)NCC34CC5CC(CC(C5)C3)C4)cccc2n1 [Compound 651, 5-N-(adamantan-1-ylmethyl)-2-N-[2-(diethylamino)ethyl]imidazo [1,2-a]pyridine-2,5-dicarboxamide]
< 2000 nM | CC(C)N(CCNC(=O)c1cn2c(C(=O)NCC34CC5CC(CC(C5)C3)C4)cccc2n1)C(C)C [Compound 652, 5-N-(adamantan-1-ylmethyl)-2-N-[2-(diisopropylamino)ethyl]imidazo [1,2-a] pyridine-2,5-dicarboxamide]
< 2000 nM | CC(CN(C)C)NC(=O)c1cn2c(C(=O)NCC34CC5CC(CC(C5)C3)C4)cccc2n1 (stereo not drawn) [Compound 653, 5-N-(adamantan-1-ylmethyl)-2-N-[2-(dimethylamino)-l-methylethyl] imidazo[1,2-a]pyridine-2,5-dicarboxamide]
